Data from patent publication US20260042731A1, “(2,4-DICHLOROPHENOXY)ACETIC ACID ANALOGS” (CORTEVA AGRISCIENCE LLC, priority 2022, published 2026).
Where two headings read alike, the source gives them in different places.

Legend:
[1] = tested on: Amaranthus rudis (AMATA), tall water hemp; experiment: Postemergence herbicide evaluation, growth of Amaranthus rudis (AMATA); format: in vivo; conditions: Amaranthus tuberculatus, post-emergence, percent reduction in plant size relative to untreated control, read-out: Ave. AMATA; for pest or weed control at 280 g/ha: 280 g ae/ha; for pest or weed control at 560 g/ha: 560 g ae/ha
[2] = tested on: Ambrosia artemisiifolia (AMBEL), common ragweed; experiment: Postemergence herbicide evaluation, growth of Ambrosia artemisiifolia (AMBEL); format: in vivo; conditions: Ambrosia artemisiifolia, post-emergence, percent reduction in plant size relative to untreated control, read-out: AVE. AMBEL; for pest or weed control at 280 g/ha: 280 g ae/ha; for pest or weed control at 560 g/ha: 560 g ae/ha
[3] = tested on: Abutilon theophrasti (ABUTH), velvetleaf; experiment: Postemergence herbicide evaluation, growth of Abutilon theophrasti (ABUTH); format: in vivo; conditions: Abutilon theophrasti, post-emergence, percent reduction in plant size relative to untreated control, read-out: AVE. ABUTH; for pest or weed control at 280 g/ha: 280 g ae/ha; for pest or weed control at 560 g/ha: 560 g ae/ha
[4] = tested on: Chenopodium album (CHEAL), common lambsquarters; experiment: Postemergence herbicide evaluation, growth of Chenopodium album (CHEAL); format: in vivo; conditions: Chenopodium album, post-emergence, percent reduction in plant size relative to untreated control, read-out: Ave. CHEAL; for pest or weed control at 280 g/ha: 280 g ae/ha; for pest or weed control at 560 g/ha: 560 g ae/ha
[5] = tested on: glyphosate resistant Conyza canadensis (L.) (ERICA), horseweed; experiment: Postemergence herbicide evaluation, growth of Conyza canadensis (ERICA); format: in vivo; conditions: Erigeron canadensis, post-emergence, percent reduction in plant size relative to untreated control, read-out: Ave. ERICA; for pest or weed control at 280 g/ha: 280 g ae/ha; for pest or weed control at 560 g/ha: 560 g ae/ha
[6] = Volatility of compounds measured by thermogravimetric analysis (TGA); format: physicochemical
[7] = tested on: weeds (ABUTH, AMATA, AMBEL, CHEAL, ERICA); experiment: Postemergence herbicide evaluation, overall average % weed control across ABUTH, AMATA, AMBEL, CHEAL, ERICA; format: in vivo; conditions: post-emergence, average over the five weeds, read-out: Overall Ave % Weed Control; for pest or weed control at 280 g/ha: 280 g ae/ha; for pest or weed control at 560 g/ha: 560 g ae/ha

Structure (SMILES)	pest or weed control at 280 g/ha ([1]; 168 h, 7 DAA) [%]	pest or weed control at 560 g/ha ([1]; 168 h, 7 DAA) [%]	pest or weed control at 280 g/ha ([1]; 336 h, 14 DAA) [%]	pest or weed control at 560 g/ha ([1]; 336 h, 14 DAA) [%]	pest or weed control at 280 g/ha ([1]; 504 h, 21 DAA) [%]	pest or weed control at 560 g/ha ([1]; 504 h, 21 DAA) [%]	pest or weed control at 280 g/ha ([2]; 168 h, 7 DAA) [%]	pest or weed control at 560 g/ha ([2]; 168 h, 7 DAA) [%]	pest or weed control at 280 g/ha ([2]; 336 h, 14 DAA) [%]	pest or weed control at 560 g/ha ([2]; 336 h, 14 DAA) [%]	pest or weed control at 280 g/ha ([2]; 504 h, 21 DAA) [%]	pest or weed control at 560 g/ha ([2]; 504 h, 21 DAA) [%]	pest or weed control at 280 g/ha ([3]; 168 h, 7 DAA) [%]	pest or weed control at 560 g/ha ([3]; 168 h, 7 DAA) [%]	pest or weed control at 280 g/ha ([3]; 336 h, 14 DAA) [%]	pest or weed control at 560 g/ha ([3]; 336 h, 14 DAA) [%]	pest or weed control at 280 g/ha ([3]; 504 h, 21 DAA) [%]	pest or weed control at 560 g/ha ([3]; 504 h, 21 DAA) [%]	pest or weed control at 280 g/ha ([4]; 168 h, 7 DAA) [%]	pest or weed control at 560 g/ha ([4]; 168 h, 7 DAA) [%]	other results
CC(=O)/C(C)=N/OC(=O)COc1ccc(Cl)cc1Cl [Compound A8, 3-((2-(2,4-Dichlorophenoxy)acetoxy)imino)butan-2-one]	70	75	83	85	78	87	70	80	90	98	96	100	74	95	65	96	70	99	68	70	pest or weed control at 280 g/ha ([4]; 336 h, 14 DAA): 73%; pest or weed control at 560 g/ha ([4]; 336 h, 14 DAA): 80%; pest or weed control at 280 g/ha ([4]; 504 h, 21 DAA): 83%; pest or weed control at 560 g/ha ([4]; 504 h, 21 DAA): 80%; pest or weed control at 280 g/ha ([5]; 168 h, 7 DAA): 70%; pest or weed control at 560 g/ha ([5]; 168 h, 7 DAA): 73%; pest or weed control at 280 g/ha ([5]; 336 h, 14 DAA): 85%; pest or weed control at 560 g/ha ([5]; 336 h, 14 DAA): 90%; pest or weed control at 280 g/ha ([5]; 504 h, 21 DAA): 92%; pest or weed control at 560 g/ha ([5]; 504 h, 21 DAA): 97%; TGA Data (rate of weight loss, volatility) [6]: 1 µg/min; pest or weed control at 280 g/ha ([7]; 168 h, 7 DAA): 70%; pest or weed control at 560 g/ha ([7]; 168 h, 7 DAA): 79%; pest or weed control at 280 g/ha ([7]; 336 h, 14 DAA): 79%; pest or weed control at 560 g/ha ([7]; 336 h, 14 DAA): 90%; pest or weed control at 280 g/ha ([7]; 504 h, 21 DAA): 84%; pest or weed control at 560 g/ha ([7]; 504 h, 21 DAA): 93%
CCO/C(CC)=N\OC(=O)COc1ccc(Cl)cc1Cl [Compound A9, Ethyl N-2-(2,4-dichlorophenoxy)acetoxypropionimidate]	65	78	63	85	60	84	73	83	93	93	92	96	80	80	80	96	89	95	70	65	pest or weed control at 280 g/ha ([4]; 336 h, 14 DAA): 83%; pest or weed control at 560 g/ha ([4]; 336 h, 14 DAA): 68%; pest or weed control at 280 g/ha ([4]; 504 h, 21 DAA): 88%; pest or weed control at 560 g/ha ([4]; 504 h, 21 DAA): 75%; pest or weed control at 280 g/ha ([5]; 168 h, 7 DAA): 70%; pest or weed control at 560 g/ha ([5]; 168 h, 7 DAA): 70%; pest or weed control at 280 g/ha ([5]; 336 h, 14 DAA): 91%; pest or weed control at 560 g/ha ([5]; 336 h, 14 DAA): 84%; pest or weed control at 280 g/ha ([5]; 504 h, 21 DAA): 99%; pest or weed control at 560 g/ha ([5]; 504 h, 21 DAA): 97%; TGA Data (rate of weight loss, volatility) [6]: 0.5 µg/min; pest or weed control at 280 g/ha ([7]; 168 h, 7 DAA): 72%; pest or weed control at 560 g/ha ([7]; 168 h, 7 DAA): 75%; pest or weed control at 280 g/ha ([7]; 336 h, 14 DAA): 82%; pest or weed control at 560 g/ha ([7]; 336 h, 14 DAA): 85%; pest or weed control at 280 g/ha ([7]; 504 h, 21 DAA): 85%; pest or weed control at 560 g/ha ([7]; 504 h, 21 DAA): 89%
